# According to paper PMC9571594, “Development of Semisynthetic Apoptosis-Inducing Agents Based on Natural Phenolic Acids Scaffold: Design, Synthesis and In-Vitro Biological Evaluation” (Molecules, 2022):
# Like-named read-outs stand apart in the source and are kept apart here.
# Tests used:
# HepG2 cells = assay: MTT cell viability assay, HepG2; format: cell-based, human; conditions: Homo sapiens, HepG2; MTT, 48 h, average of triplicates; read-out: IC50 (μM) ± SD HepG2
# Protocol: (§1) MCF-7 cells (Human breast adenocarcinoma), HepG2 (human hepatocellular carcinoma), A549 (human lung adenocarcinoma), Caco-2 (colon carcinoma), PANC-1 (human pancreatic cancer), and Vero cells (derived from normal kidney cells) were supplied by (Holding Company for Biological Products and Vaccines VACSERA; Giza, Egypt). The cells were cultured in PRMI 1640 medium (Lonza, Switzerland) supplemented with 10% fetal bovine serum (Gibco), 1% penicillin and 1% streptomycin (Sigma Aldrich, Saint Louis, MO, USA) at 37 °C under an atmosphere of 5% CO2 and 95% air.
# (§2) The effect of parent compounds and their derivatives were assessed by (3-(4,5-dimethylthiazol-2-yl)-2,5diphenyl-tetrazolium bromide) MTT assay. […] After a merged sheet of cells developed, the growth media was decanted from the 96-well microtiter and refilled with different concentrations of compounds (µg/mL), and the plate was incubated at 37 °C for 48 h to minimize exposure to the dissolving agent (Supporting Information).
# (§3) MTT solution (BIO BASIC CANADA INC) was prepared [5 mg/mL in phosphate buffered saline (PBS)], added to each well and incubated for 4 h, then after removing the media, 200 μL of DMSO was added to each well to solubilize the formazan crystals and the optical density of the formazan product was measured at 560 nm using microplate reader (mindray, MR-96A). The results were calculated as the mean of the three independent experiments. […]
# (§4) Determination of sample cytotoxicity on cells (MTT protocol) […]
# (§5) well) and incubated at 37°C for 24 hours to develop a complete monolayer sheet.
# (§6) 2- Growth medium was decanted from 96 well micro titer plates after confluent sheet of cells were formed, cell monolayer was washed twice with wash media.
# (§7) 3- two-fold dilutions of tested sample was made in RPMI medium with 2% serum […]
# (§8) 4- 0.1 ml of each dilution was tested in different wells leaving 3 wells as control, receiving only maintenance medium.
# (§9) 5- Plate was incubated at 37°C and examined. Cells were checked for any physical signs of toxicity, e.g. partial or complete loss of the monolayer, rounding, shrinkage, […]
# (§10) 6- MTT solution was prepared (5mg/ml in PBS) (BIO BASIC CANADA INC).
# (§11) 8- 20ul MTT solution were added to each well. Place on a shaking table, 150rpm for 5 minutes, to thoroughly mix the MTT into the media.
# (§12) 10) Dump off the media. (dry plate on paper towels to remove residue if necessary. […] 9 ش - ايلعلا هبضهلا - مطقملا / ىسيئرلا لمعملا […]
# [1] = MTT cell viability assay on normal Vero cells (selectivity); format: cell-based; conditions: African green monkey, Vero cells (normal kidney cells)
# Protocol: (§13) MCF-7 cells (Human breast adenocarcinoma), HepG2 (human hepatocellular carcinoma), A549 (human lung adenocarcinoma), Caco-2 (colon carcinoma), PANC-1 (human pancreatic cancer), and Vero cells (derived from normal kidney cells) were supplied by (Holding Company for Biological Products and Vaccines VACSERA; Giza, Egypt).
# as §2, §3, §4, §5, §6, §7, §8, §9, §10, §11
# (§14) 10) Dump off the media. (dry plate on paper towels to remove residue if necessary. […]
# Vero normal cell line = assay: as above; format: cell-based
# Protocol: as §13, §2, §3, §4, §5, §6, §7, §8, §9, §10, §11, §14
# Caco-2 cells = assay: Annexin V-FITC/PI apoptosis assay by flow cytometry; format: cell-based; design: key: % of cells; conditions: annexin-V FITC/PI staining, 24h
# Protocol: In order to determine the percentage of viable, apoptotic and necrotic cells after treatment with our compounds, double-staining with fluorescein isothiocyanate (FITC) and PI was performed. Annexin V-FITC Apoptosis Detection Kit (BioVision, CA, USA) was used. Briefly, cultured Caco-2 were treated with the tested compounds or DMSO for 24h. Cells were then collected by centrifugation at 2000 rpm for 5 min, and the pellet was washed with PBS then centrifuged again at 2000 rpm for 5 min then resuspended in 500μL of the kit’s binding buffer before adding the Annexin V-FITC and PI. The cells were then incubated at room temperature in the dark for 5 min. Annexin V-FITC binding was measured using FACS Calibur flow cytometer (BD biosciences, USA) (Ex = 488 nm, Em = 533 nm, FL1 filter for annexin and FL2 filter for PI).
# PANC-1 cells = assay: MTT cell viability assay, PANC-1; format: cell-based, human
# Protocol: as §1, §2, §3, §4, §5, §6, §7, §8, §9, §10, §11, §12
# A549 cells = assay: MTT cell viability assay, A549; format: cell-based, human
# Protocol: as §1, §2, §3, §4, §5, §6, §7, §8, §9, §10, §11, §12
# MCF-7 cells = assay: MTT cell viability assay, MCF-7; format: cell-based, Human
# Protocol: as §1, §2, §3, §4, §5, §6, §7, §8, §9, §10, §11, §12
smiles,measurement,setting,value
"COc1cc(/C=C/C(=O)O)ccc1O [Compound 2, Ferulic acid]",IC50,HepG2 cells,810 ± 2170 µM
same,"viability at 48 h, 15.625 ug/ml",[1]; 15.625 ug/ml,100%
same,"viability at 48 h, 31.25 ug/ml",[1]; 31.25 ug/ml,99.6%
same,"viability at 48 h, 62.5 ug/ml",[1]; 62.5 ug/ml,95.5%
same,"viability at 48 h, 125 ug/ml",[1]; 125 ug/ml,70.2%
same,"viability at 48 h, 250 ug/ml",[1]; 250 ug/ml,33.2%
same,"viability at 48 h, 500 ug/ml",[1]; 500 ug/ml,17.5%
same,Toxicity %,Vero normal cell line; 15.625 ug/ml,0%
same,Toxicity %,Vero normal cell line; 31.25 ug/ml,0.365%
same,Toxicity %,Vero normal cell line; 62.5 ug/ml,4.501%
same,Toxicity %,Vero normal cell line; 125 ug/ml,29.81%
same,Toxicity %,Vero normal cell line; 250 ug/ml,66.79%
same,Toxicity %,Vero normal cell line; 500 ug/ml,82.48%
same,IC50,"Vero normal cell line; Chlorocebus sabaeus, MTT report T-4-019-5, Conc. ug/ml",196 µg/mL
same,Apoptosis Total,Caco-2 cells,13.22
same,Early Apoptosis,Caco-2 cells,5.17
same,Late Apoptosis,Caco-2 cells,6.48
same,Necrosis,Caco-2 cells,1.57
same,viability at 15.625 µg/mL,"PANC-1 cells; Homo sapiens, PANC-1, Panc1, 15.625 ug/ml",100%
same,viability at 31.25 µg/mL,"PANC-1 cells; Homo sapiens, PANC-1, Panc1, 31.25 ug/ml",99.7%
same,viability at 62.5 µg/mL,"PANC-1 cells; Homo sapiens, PANC-1, Panc1, 62.5 ug/ml",100%
same,viability at 125 µg/mL,"PANC-1 cells; Homo sapiens, PANC-1, Panc1, 125 ug/ml",86.5%
same,viability at 250 µg/mL,"PANC-1 cells; Homo sapiens, PANC-1, Panc1, 250 ug/ml",24.9%
same,viability at 500 µg/mL,"PANC-1 cells; Homo sapiens, PANC-1, Panc1, 500 ug/ml",28.5%
same,IC50,"PANC-1 cells; Homo sapiens, PANC-1, Panc1, MTT report T-4-019-5, Conc. ug/ml, read-out: IC50",195 µg/mL
same,Toxicity %,"PANC-1 cells; Panc1, 15.625 ug/ml",0%
same,Toxicity %,"PANC-1 cells; Panc1, 31.25 ug/ml",0.2717%
same,Toxicity %,"PANC-1 cells; Panc1, 62.5 ug/ml",0%
same,Toxicity %,"PANC-1 cells; Panc1, 125 ug/ml",13.5%
same,Toxicity %,"PANC-1 cells; Panc1, 250 ug/ml",75.09%
same,Toxicity %,"PANC-1 cells; Panc1, 500 ug/ml",71.47%
same,Toxicity %,"A549 cells; A549, 15.625 ug/ml",0.8674%
same,Toxicity %,"A549 cells; A549, 31.25 ug/ml",1.115%
same,Toxicity %,"A549 cells; A549, 62.5 ug/ml",0.7435%
same,Toxicity %,"A549 cells; A549, 125 ug/ml",4.089%
same,Toxicity %,"A549 cells; A549, 250 ug/ml",59.11%
same,Toxicity %,"A549 cells; A549, 500 ug/ml",75.96%
same,IC50,"A549 cells; Homo sapiens, A549, MTT, 48 h, average of triplicates, read-out: IC50 (μM) ± SD A549",1740 µM
same,viability at 15.625 µg/mL,"A549 cells; Homo sapiens, A549, 15.625 ug/ml",99.1%
same,viability at 31.25 µg/mL,"A549 cells; Homo sapiens, A549, 31.25 ug/ml",98.9%
same,viability at 62.5 µg/mL,"A549 cells; Homo sapiens, A549, 62.5 ug/ml",99.3%
same,viability at 125 µg/mL,"A549 cells; Homo sapiens, A549, 125 ug/ml",95.9%
same,viability at 250 µg/mL,"A549 cells; Homo sapiens, A549, 250 ug/ml",40.9%
same,viability at 500 µg/mL,"A549 cells; Homo sapiens, A549, 500 ug/ml",24%
same,IC50,"A549 cells; Homo sapiens, A549, MTT report T-4-019-5, Conc. ug/ml, read-out: IC50",314 µg/mL
same,IC50,"MCF-7 cells; Homo sapiens, MCF7, MTT, 48 h, average of triplicates, read-out: IC50 (μM) ± SD MCF-7",1120 µM
same,viability at 15.625 µg/mL,"MCF-7 cells; Homo sapiens, Mcf7, 15.625 ug/ml",98.7%
same,viability at 31.25 µg/mL,"MCF-7 cells; Homo sapiens, Mcf7, 31.25 ug/ml",99.4%
same,viability at 62.5 µg/mL,"MCF-7 cells; Homo sapiens, Mcf7, 62.5 ug/ml",99.2%
same,viability at 125 µg/mL,"MCF-7 cells; Homo sapiens, Mcf7, 125 ug/ml",84.9%
same,viability at 250 µg/mL,"MCF-7 cells; Homo sapiens, Mcf7, 250 ug/ml",29.4%
same,viability at 500 µg/mL,"MCF-7 cells; Homo sapiens, Mcf7, 500 ug/ml",11.7%
same,IC50,"MCF-7 cells; Homo sapiens, Mcf7, MTT report T-4-019-5, Conc. ug/ml, read-out: IC50",203 µg/mL
same,Toxicity %,"MCF-7 cells; Mcf7, 15.625 ug/ml",1.286%
same,Toxicity %,"MCF-7 cells; Mcf7, 31.25 ug/ml",0.6431%
same,Toxicity %,"MCF-7 cells; Mcf7, 62.5 ug/ml",0.7503%
same,Toxicity %,"MCF-7 cells; Mcf7, 125 ug/ml",15.11%
same,Toxicity %,"MCF-7 cells; Mcf7, 250 ug/ml",70.63%
same,Toxicity %,"MCF-7 cells; Mcf7, 500 ug/ml",88.32%
